# What was measured:
# [1] = molecular target: EGFR (d746-750 (d19)/T790M) (Homo sapiens (Human), UniProt P00533, DEL746-750/T790M); assay: Inhibitory activity for EGFR (d746-750 (d19)/T790M) kinase; assay type: biochemical; settings: ATP 5 μM
# Description: 1.3 Screening for Inhibitory Activity for EGFR (d746-750 (d19)/T790M) Kinase
# (§1) A 50 ng/μL EGFR (d746-750/T790M, Carna) stock solution was diluted with a kinase buffer (50 mM HEPES, 10 mM MgCl2, 2 mM DTT, 1 mM EGTA, 0.01% Tween 20), and 6 μL of 1.67× working solution at 0.005 ng/μL (final concentration: 0.003 ng/μL) was added to each well. Different compounds dissolved in DMSO were added to the wells using a nanoliter pipettor, resulting in the final concentrations of the compounds of 10 nM to 0.0024 nM (4-fold gradient for 7 concentrations in total), and blank control wells (without enzyme) and negative control wells (with enzyme, plus vehicle DMSO) were set, 2 replicate wells for each concentration. After enzyme was reacted with the compound or vehicle for 30 min, 5×ATP at 25 μM (final concentration: 5 μM, Sigma) prepared with a kinase buffer was mixed with 5× substrate at 0.5 μM (final concentration: 0.1 μM, ULight-poly GT, PerkinElmer) at a ratio of 1:1 (v:v), and the mixture was added to each well at 4 μL/well. After being sealed with a film, the plate was incubated at room temperature for 2 h, and then 5 μL of 4×EDTA at 40 mM (final concentration: 10 mM) was added to each well. After the plate was incubated for 5 min at room temperature, 5 μL of 4× detection reagent at 8 nM (final concentration: 2 nM, Eu-anti-phospho-tyrosine antibody, PerkinElmer) was added to each well. After being incubated at room temperature for 1 h, the plate was read using a PerkinElmer Envision multi-mode microplate reader (excitation: 320 nm, emission: 665 nm), and IC50 was calculated by four-parameter fitting.
# [2] = molecular target: EGFR (d746-750/T790M/C797S) (Homo sapiens (Human), UniProt P00533, C797S/DEL746-750/T790M); assay: Inhibitory activity for EGFR (d746-750/T790M/C797S) kinase; assay type: biochemical; settings: ATP 5 μM; read-out: EGFR(d19/T790M/C797S) (IC50)
# Sequence of EGFR (d746-750/T790M/C797S) (P00533 other isoform, or with tags, fused parts or gaps T790M/C797S/del 1-694/del 746-750 limits assumed): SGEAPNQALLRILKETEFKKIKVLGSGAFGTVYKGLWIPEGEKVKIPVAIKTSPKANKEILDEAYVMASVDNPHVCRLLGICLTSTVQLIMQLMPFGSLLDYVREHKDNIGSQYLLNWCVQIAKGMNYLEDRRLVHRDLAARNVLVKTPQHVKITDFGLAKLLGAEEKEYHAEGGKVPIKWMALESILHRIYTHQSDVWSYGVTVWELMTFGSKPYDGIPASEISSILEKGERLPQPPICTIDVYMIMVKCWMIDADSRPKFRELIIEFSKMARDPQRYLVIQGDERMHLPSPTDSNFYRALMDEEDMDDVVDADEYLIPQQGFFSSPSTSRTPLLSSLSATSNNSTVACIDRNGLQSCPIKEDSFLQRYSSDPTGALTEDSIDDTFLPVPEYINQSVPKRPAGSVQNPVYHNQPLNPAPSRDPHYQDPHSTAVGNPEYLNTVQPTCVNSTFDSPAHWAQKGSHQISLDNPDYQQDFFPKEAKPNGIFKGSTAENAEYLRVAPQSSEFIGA
# Description: 1.5 Screening for Inhibitory Activity for EGFR (d746-750/T790M/C797S) Kinase
# as §1, with “(d746-750/T790M/C797S, BPS)” for “(d746-750/T790M, Carna)”, “0.05” for “0.005”, “0.03” for “0.003”
# [3] = system: BAF3-EGFR (L858R/T790M/C797S) cells; assay: Inhibition of proliferation of BAF3-EGFR (L858R/T790M/C797S) cells, CCK-8; assay type: cell-based; settings: Ba/F3 EGFR, 72 h, read-out: BAF3(EGFR T790M L858R C797S) cell inhibitory activity IC50
# Description: A flask of EGFR (L858R/T790M/C797S) cells in the logarithmic growth phase and good conditions was taken, and the cells were collected and added to a centrifuge tube. 20 μL of cells were taken and counted, and the required number of cells (mL) was pipetted and centrifuged at 1200 rpm for 3 min. The supernatant was discarded, and an appropriate amount of plating medium (RPMI medium+10% FBS) was added to adjust the cell density to 1.5×10^5 cells/mL. The cells were seeded on a 96-well plate at 100 μL/well using a multi-channel pipette and cultured in a cell incubator at 37° C., 5% CO2 with saturated humidity. After overnight incubation, compounds were loaded using a nanoliter pipettor, 2 duplicate wells were set for each concentration, and cells without compound added were used as negative controls.
# Inhibition rate (%)=(mean value of negative control group-mean value of experimental group)/(mean value of negative control group−mean value of blank group)×100%.
# A dose-response curve was fitted by four-parameter analysis, with the logarithm of compound concentration serving as abscissa and inhibition rate serving as ordinate, such that IC50 was calculated.
# Sequence of EGFR (d746-750 (d19)/T790M) (P00533 other isoform, or with tags, fused parts or gaps T790M/del 1-668/del 746-750 limits assumed): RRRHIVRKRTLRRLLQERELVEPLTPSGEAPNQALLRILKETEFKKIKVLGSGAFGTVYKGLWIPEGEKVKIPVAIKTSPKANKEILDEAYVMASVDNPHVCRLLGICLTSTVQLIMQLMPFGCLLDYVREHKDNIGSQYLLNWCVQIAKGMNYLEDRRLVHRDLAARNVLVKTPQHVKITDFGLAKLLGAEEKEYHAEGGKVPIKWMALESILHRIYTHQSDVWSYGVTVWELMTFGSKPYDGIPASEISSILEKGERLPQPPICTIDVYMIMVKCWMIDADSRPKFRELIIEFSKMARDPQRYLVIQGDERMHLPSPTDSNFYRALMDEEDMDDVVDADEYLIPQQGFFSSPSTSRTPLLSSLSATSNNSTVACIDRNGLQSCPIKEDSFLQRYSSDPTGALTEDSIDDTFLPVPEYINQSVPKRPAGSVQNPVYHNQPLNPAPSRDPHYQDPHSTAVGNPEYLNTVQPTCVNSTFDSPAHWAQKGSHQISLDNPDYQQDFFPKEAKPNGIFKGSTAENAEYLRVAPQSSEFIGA
SMILES,IC50 [1] [nM],IC50 [2] [nM],IC50 [3] [nM]
Cc1cc2cc(n1)-c1cnn(C)c1OCCC[C@@H](C1CC1)CN1/C(=N/C2=O)Nc2cc(NC3COC3(C)C)ccc21 (some centres unmarked) [Example 30],0.03,0.046,–
Cc1cc2cc(n1)-c1cnn(C)c1OCCC[C@@H](C1CC1)CN1/C(=N/C2=O)Nc2cc(NC3CNC3)ccc21 [Example 32],0.01,0.013,–
Cc1cc2cc(n1)-c1cnn(C)c1OCCC[C@@H](C1CC1)CN1/C(=N/C2=O)Nc2cc(NC3CC(F)C3)ccc21 (some centres unmarked) [Example 94],0.75,–,–
Cc1cc2cc(n1)-c1cnn(C)c1OCCC[C@@H](C1CC1)CN1/C(=N/C2=O)Nc2cc(NCCCN)ccc21 [Example 50],0.038,0.053,–
Cc1cc2cc(n1)-c1cnn(C)c1OCCC[C@@H](C1CC1)CN1/C(=N/C2=O)Nc2cc(N[C@H](C)CN3CCCCC3)ccc21 [Example 137],–,0.085,< 5
Cc1cc2cc(n1)-c1cnn(C)c1OCCC[C@@H](C1CC1)CN1/C(=N/C2=O)Nc2cc(N[C@@H]3CCOC3)ccc21 [Example 43],0.015,0.026,–
Cc1cc2cc(n1)-c1cnn(C)c1OCCC[C@@H](C1CC1)CN1/C(=N/C2=O)Nc2cc(N[C@@H](C)CCN3CCCCC3)ccc21 [Example 140],–,0.077,< 5
Cc1cc2cc(n1)-c1cnn(C)c1OCCC[C@@H](C1CC1)CN1/C(=N/C2=O)Nc2cc(N[C@@H]3CC[C@H](O)C3)ccc21 [Example 150],–,–,< 5
Cc1cc2cc(n1)-c1cnn(C)c1OCCC[C@@H](C1CC1)CN1/C(=N/C2=O)Nc2cc(N[C@@H]3CCCOC3)ccc21 [Example 18],0.02,0.042,–
Cc1cc2cc(n1)-c1cnn(C3CC3)c1OCCC[C@@H](C)CN1/C(=N/C2=O)Nc2cc(NC[C@H]3COCCO3)ccc21 [Example 14],0.068,0.1,–
Cc1cc2cc(n1)-c1cnn(C)c1OCCC[C@@H](C1CC1)CN1/C(=N/C2=O)Nc2ccc(NC3CCCC3)cc21 [Example 87],0.058,0.318,–
Cc1cc2cc(n1)-c1cnn(C)c1OCCC[C@@H](C1CC1)CN1/C(=N/C2=O)Nc2ccc(N3CC[C@H](O)C3)cc21 [Example 21],0.032,0.059,–
Cc1cc2cc(n1)-c1cnn(C)c1OCCC[C@@H](C1CC1)CN1/C(=N/C2=O)Nc2cc(NC3CC(N(C)C)C3)ccc21 (some centres unmarked) [Example 93],0.11,–,–
Cc1cc2cc(n1)-c1cnn(C)c1OCCC[C@@H](C1CC1)CN1/C(=N/C2=O)Nc2cc(NCCCCN)ccc21 [Example 53],0.0098,0.013,< 5
[2H]C([2H])([2H])N(C[C@@H](C)Nc1ccc2c(c1)N1C[C@H](C3CC3)CCCOc3c(cnn3C)-c3cc(cc(C)n3)C(=O)/N=C/1N2)C([2H])([2H])[2H] [Example 145],–,–,< 5
Cc1cc2cc(n1)-c1cnn(C3CC3)c1OCCC[C@@H](C)CN1/C(=N/C2=O)Nc2cc(N[C@@H]3CCOC3)ccc21 [Example 13],0.058,0.11,–
Cc1cc2cc(n1)-c1cnn(C3CC3)c1OCCC[C@@H](C)CN1/C(=N/C2=O)Nc2ccc(N3CC[C@H](O)C3)cc21 [Example 16],0.06,0.063,–
CNCCCNc1ccc2c(c1)N/C1=N\C(=O)c3cc(C)nc(c3)-c3cnn(C)c3OCCC[C@@H](C3CC3)CN12 [Example 49],0.03,0.039,–
Cc1cc2cc(n1)-c1cnn(C)c1OCCC[C@@H](C1CC1)CN1/C(=N/C2=O)Nc2cc(N[C@@H](C)CN3CCCCC3)ccc21 [Example 138],–,0.087,< 5

# Results, then the compound that gave them:
IC50 [1] [nM],IC50 [2] [nM],IC50 [3] [nM],SMILES
0.018,0.042,–,Cc1cc2cc(n1)-c1cnn(C)c1OCCC[C@@H](C1CC1)CN1/C(=N/C2=O)Nc2ccc(NCCCN3CCCC3)cc21 [Example 84]
–,0.066,–,Cc1cc2cc(n1)-c1cnn(C)c1OCCC[C@@H](C1CC1)CN1/C(=N/C2=O)Nc2ccc(NC(=O)CCCN(C)C)cc21 [Example 113]
–,0.079,< 5,Cc1cc2cc(n1)-c1cnn(C)c1OCCC[C@@H](C1CC1)CN1/C(=N/C2=O)Nc2ccc(N[C@@H](C)CN3CCCCC3)cc21 [Example 142]
–,0.073,< 5,Cc1cc2cc(n1)-c1cnn(C)c1OCCC[C@@H](C1CC1)CN1/C(=N/C2=O)Nc2ccc(NC(=O)CN(C)C)cc21 [Example 111]
0.013,0.02,< 5,Cc1cc2cc(n1)-c1cnn(C)c1OCCC[C@@H](C1CC1)CN1/C(=N/C2=O)Nc2cc(NCCCCN(C)C)ccc21 [Example 51]
0.05,0.074,–,Cc1cc2cc(n1)-c1cnn(C3CC3)c1OCCC[C@@H](C)CN1/C(=N/C2=O)Nc2cc(NCCN3CCOCC3)ccc21 [Example 5]
–,0.083,< 5,Cc1cc2cc(n1)-c1cnn(C)c1OCCC[C@@H](C1CC1)CN1/C(=N/C2=O)Nc2cc(N[C@H](C)CN(C)C)ccc21 [Example 67]
–,–,< 5,Cc1cc2cc(n1)-c1cnn(C)c1OCCC[C@@H](C1CC1)CN1/C(=N/C2=O)Nc2cc(NCCN3CCCCC3)ccc21 [Example 73]
0.15,0.17,–,Cc1cc2cc(n1)-c1cnn(C3CC3)c1OCCC[C@@H](C)CN1/C(=N/C2=O)Nc2cc(NC3CCN(C)CC3)ccc21 [Example 12]
0.015,0.028,–,Cc1cc2cc(n1)-c1cnn(C)c1OCCC[C@@H](C1CC1)CN1/C(=N/C2=O)Nc2cc(NC[C@H]3COCCO3)ccc21 [Example 19]
0.014,0.016,–,Cc1cc2cc(n1)-c1cnn(C)c1OCCC[C@@H](C1CC1)CN1/C(=N/C2=O)Nc2cc(NC3(C)CNC3)ccc21 [Example 34]
0.014,0.028,–,Cc1cc2cc(n1)-c1cnn(C)c1OCCC[C@@H](C1CC1)CN1/C(=N/C2=O)Nc2cc(NCCN3CCOCC3)ccc21 [Example 3]
0.021,0.028,< 5,CNCCCCNc1ccc2c(c1)N/C1=N\C(=O)c3cc(C)nc(c3)-c3cnn(C)c3OCCC[C@@H](C3CC3)CN12 [Example 52]
0.028,0.153,–,Cc1cc2cc(n1)-c1cnn(C)c1OCCC[C@@H](C1CC1)CN1/C(=N/C2=O)Nc2cc(NC3CCC3)ccc21 [Example 79]
0.018,0.031,–,Cc1cc2cc(n1)-c1cnn(C)c1OCCC[C@@H](C1CC1)CN1/C(=N/C2=O)Nc2cc(NC3C(C)(C)OC3(C)C)ccc21 [Example 31]

# Source: US20250034165A1, “COMPOUND CONTAINING CYCLOALKYL OR HALOALKYL” (CHIA TAI TIANQING PHARMACEUTICAL GROUP CO., LTD., priority 2021, published 2025)
